The target of one assay is T1, human LPA1 (Homo sapiens, UniProt Q92633).
T1 construct: expressed in transfected cells; host or cells: Chinese hamster ovary (CHO) cells
T1 sequence (Q92633 whole entry): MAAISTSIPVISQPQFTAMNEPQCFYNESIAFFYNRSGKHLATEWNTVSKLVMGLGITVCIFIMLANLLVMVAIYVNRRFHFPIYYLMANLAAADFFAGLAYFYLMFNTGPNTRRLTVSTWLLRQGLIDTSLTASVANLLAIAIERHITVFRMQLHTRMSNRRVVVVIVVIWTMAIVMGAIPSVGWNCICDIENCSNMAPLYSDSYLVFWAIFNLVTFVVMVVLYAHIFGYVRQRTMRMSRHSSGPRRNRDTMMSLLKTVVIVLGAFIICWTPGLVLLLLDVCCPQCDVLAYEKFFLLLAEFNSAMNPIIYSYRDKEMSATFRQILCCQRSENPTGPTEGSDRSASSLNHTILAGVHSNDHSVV
Description: LPA1 functional antagonist assay (calcium flux). In kind it is cell-based. Conditions: CHO cells overexpressing human LPA1; calcium flux induced by 10 nM LPA; read-out: hLPA1 IC50. The method, then:
The effectiveness of compounds of the present invention as LPA1 inhibitors can be determined in an LPA1 functional antagonist assay as follows:
The cells were then equilibrated to room temperature for 30 minutes before the assay. […] IC50 values were determined by fitting data to a 4-parameter logistic equation (GraphPad Prism, San Diego Calif.).
As to `Cc1nc(-c2nnn(C)c2NC(=O)OCC2(C)CC2)ccc1O[C@H]1CCC[C@H](C(=O)O)C1` [Example 224, (1S,3S)-3-((2-methyl-6-(1-methyl-5-((((1-methylcyclopropyl)methoxy)carbonyl)amino)-1H-1,2,3-triazol-4-yl)pyridin-3-yl)oxy)cyclohexane-1-carboxylic acid], the IC50 was 60 nM.

`Cc1nc(-c2nnn(C)c2CNC(=O)N(C)CC(C)C)ccc1O[C@H]1CCC[C@H](C(=O)O)C1` [Example 128, (1S,3S)-3-((6-(5-((3-isobutyl-3-methylureido)methyl)-1-methyl-1H-1,2,3-triazol-4-yl)-2-methylpyridin-3-yl)oxy)cyclohexane-1-carboxylic acid]: the half-maximal inhibitory concentration (IC50) amounted to 273 nM.

`Cc1nc(-c2nnn(C)c2CNC(=O)OCC(C)CC(F)(F)F)ccc1O[C@H]1CCC[C@H](C(=O)O)C1` (mixture of isomers) [Example 32, (1S,3S)-3-((2-methyl-6-(1-methyl-5-((((4,4,4-trifluoro-2-methylbutoxy)carbonyl)amino)methyl)-1H-1,2,3-triazol-4-yl)pyridin-3-yl)oxy)cyclo-hexane-1-carboxylic acid]: the half-maximal inhibitory concentration (IC50) came out at 69 nM.

For `Cc1nc(-c2nnn(C)c2CNC(=O)OCCC(C)(C)C)ccc1O[C@H]1CCC[C@H](C(=O)O)C1` [Example 37, (1S,3S)-3-((6-(5-((((3,3-dimethylbutoxy)carbonyl)amino)methyl)-1-methyl-1H-1,2,3-triazol-4-yl)-2-methylpyridin-3-yl)oxy)cyclohexanecarboxylic acid], the IC50 was 12 nM.

`Cc1nc(-c2nnn(C)c2NC(=O)OCCC(C)(C)C)ccc1O[C@H]1CCC[C@H](C(=O)O)C1` [Example 65, (1S,3S)-3-((6-(5-(((3,3-dimethyl-butoxy)carbonyl)amino)-1-methyl-1H-1,2,3-triazol-4-yl)-2-methyl-pyridin-3-yl)oxy)cyclohexane-1-carboxylic acid]: the IC50 is 75 nM.

In the case of `Cc1nc(-c2nnn(C)c2CNC(=O)OCC2(F)CC2)ccc1O[C@H]1CCC[C@H](C(=O)O)C1` [Example 49, (1S,3S)-3-((6-(5-(((((1-fluorocyclopropyl)methoxy)carbonyl)amino)methyl)-1-methyl-1H-1,2,3-triazol-4-yl)-2-methylpyridin-3-yl)oxy)cyclohexane-1-carboxylic acid], the half-maximal inhibitory concentration (IC50) came out at 602 nM.

With `C[C@@H](OC(=O)Nc1c(-c2ccc(O[C@H]3CCC[C@H](C(=O)O)C3)cn2)nnn1C)C1CC1` [Example 82, (1S,3S)-3-((6-(5-((((R)-1-cyclopropyl-ethoxy)carbonyl)amino)-1-methyl-1H-1,2,3-triazol-4-yl)pyridin-3-yl)oxy)cyclohexane-1-carboxylic acid], the IC50 was 79 nM.

For the molecule `Cn1nnc(-c2ccc(O[C@H]3CCC[C@H](C(=O)O)C3)cn2)c1CNC(=O)OCCc1ccccc1` [Example 9, (1S,3S)-3-((6-(1-methyl-5-(((phenethoxycarbonyl)amino)methyl)-1H-1,2,3-triazol-4-yl)pyridin-3-yl)oxy)cyclohexane-1-carboxylic acid], the concentration for half-maximal inhibition (IC50) was 672 nM.

Consider `Cc1nc(-c2nnn(C)c2CNC(=O)OC2CCCC2)ccc1O[C@H]1CCC[C@H](C(=O)O)C1` [Example 28], for which the concentration for half-maximal inhibition (IC50) was found to be 18 nM.

As to `CCCCCOC(=O)NCc1c(-c2ccc(O[C@H]3CCC[C@H](C(=O)O)C3)cn2)nnn1C` [Example 27, (1S,3S)-3-((6-(1-methyl-5-((((pentyloxy)carbonyl)amino)methyl)-1H-1,2,3-triazol-4-yl)pyridin-3-yl)oxy)cyclohexane-1-carboxylic acid], the half-inhibitory concentration (IC50) came out at 16 nM.

Regarding `CCCCOC(=O)NCc1c(-c2ccc(O[C@H]3CCC[C@H](C(=O)O)C3)c(C(F)F)n2)nnn1C` [Example 100, (1S,3S)-3-((6-(5-(((butoxycarbonyl)amino)methyl)-1-methyl-1H-1,2,3-triazol-4-yl)-2-(difluoromethyl)pyridin-3-yl)oxy)cyclohexane-1-carboxylic acid], the IC50 turned out to be 39 nM.

Take `Cc1nc(-c2nnn(C)c2CNC(=O)OCc2cc(F)cc(F)c2)ccc1O[C@H]1CCC[C@H](C(=O)O)C1` [Example 8, (1S,3S)-3-((6-(5-(((((3,5-difluorobenzyl)oxy)carbonyl)amino)methyl)-1-methyl-1H-1,2,3-triazol-4-yl)-2-methylpyridin-3-yl)oxy)cyclohexane-1-carboxylic acid]: the IC50 amounted to 5 nM.

For the molecule `C[C@@H](OC(=O)Nc1c(-c2ccc(O[C@H]3CCC[C@H](C(=O)O)C3)cn2)nnn1C)c1ccccc1` [Example 91, (1S,3S)-3-((6-(1-methyl-5-((((R)-1-phenylethoxy)carbonyl)amino)-1H-1,2,3-triazol-4-yl)pyridin-3-yl)oxy)cyclohexane-1-carboxylic acid], the concentration for half-maximal inhibition (IC50) came to 35 nM.

Regarding `CCCCOC(=O)NCc1c(-c2ccc(O[C@H]3CCC[C@H](C(=O)O)C3)cn2)nnn1C` [Example 5, (1S,3S)-3-((6-(5-(((butoxycarbonyl)amino)methyl)-1-methyl-1H-1,2,3-triazol-4-yl)pyridin-3-yl)oxy)cyclohexane-1-carboxylic acid], the IC50 was found to be 96 nM.

On to `Cc1nc(-c2nnn(C)c2CNC(=O)OC2CC3(CC3)C2)c(F)cc1O[C@H]1CCC[C@H](C(=O)O)C1` [Example 214, (1S,3S)-3-((5-fluoro-2-methyl-6-(1-methyl-5-((((spiro[2.3]hexan-5-yloxy)carbonyl)amino)methyl)-1H-1,2,3-triazol-4-yl)pyridin-3-yl)oxy)cyclohexane-1-carboxylic acid], for which the IC50 was determined as 129 nM.

Regarding `Cc1nc(-c2nnn(C)c2CNC(=O)OCC2CC(C)(C)C2)ccc1O[C@H]1CCC[C@H](C(=O)O)C1` [Example 38, (1S,3S)-3-((6-(5-(((((3,3-dimethylcyclobutyl)methoxy)carbonyl)amino)methyl)-1-methyl-1H-1,2,3-triazol-4-yl)-2-methylpyridin-3-yl)oxy)cyclohexanecarboxylic acid], the IC50 worked out at 19 nM.

In the case of `Cc1nc(-c2nnn(C)c2CNC(=O)OCc2ccccc2)ccc1O[C@@H]1CCC[C@@](F)(C(=O)O)C1` (racemic) [Example 209, (±)-Cis-3-((6-(5-((((benzyloxy)carbonyl)amino)methyl)-1-methyl-1H-1,2,3-triazol-4-yl)-2-methylpyridin-3-yl)oxy)-1-fluorocyclohexanecarboxylic acid], the 50% inhibitory concentration (IC50) stood at 12 nM.

Regarding `Cc1nc(-c2nnn(C)c2CNC(=O)NC(C)c2ccccc2)ccc1O[C@H]1CCC[C@H](C(=O)O)C1` (mixture of isomers) [Example 129, (1S,3S)-3-((2-methyl-6-(1-methyl-5-((3-(1-phenylethyl)ureido)methyl)-1H-1,2,3-triazol-4-yl)pyridin-3-yl)oxy)cyclo-hexane-1-carboxylic acid], the IC50 was found to be 142 nM.

For the molecule `CCCOC(=O)NCc1c(-c2ccc(O[C@H]3CCC[C@H](C(=O)O)C3)c(C(F)(F)F)n2)nnn1C` [Example 95, (1S,3S)-3-((6-(1-methyl-5-(((propoxy-carbonyl)amino)methyl)-1H-1,2,3-triazol-4-yl)-2-(trifluoromethyl)pyridin-3-yl)oxy)cyclohexane-1-carboxylic acid], the IC50 was 867 nM.

Take `Cc1nc(-c2nnn(C)c2NC(=O)OCCC(F)(F)F)ccc1O[C@H]1CCC[C@H](C(=O)O)C1` [Example 145, (1S,3S)-3-((2-methyl-6-(1-methyl-5-(((3,3,3-trifluoropropoxy)carbonyl)amino)-1H-1,2,3-triazol-4-yl)pyridin-3-yl)oxy)cyclohexane-1-carboxylic acid]: the concentration for half-maximal inhibition (IC50) came out at 43 nM.

With `Cc1nc(-c2nnn(C)c2CNC(=O)OCC2(C)CC2)c(F)cc1O[C@H]1CCC[C@H](C(=O)O)C1` [Example 215, (1S,3S)-3-((5-fluoro-2-methyl-6-(1-methyl-5-(((((1-methylcyclopropyl)methoxy)carbonyl)amino)methyl)-1H-1,2,3-triazol-4-yl)pyridin-3-yl)oxy)cyclohexane-1-carboxylic acid], the IC50 worked out at 112 nM.

With `CCc1nc(-c2nnn(C)c2CNC(=O)OC2CCCC2)ccc1O[C@H]1CCC[C@H](C(=O)O)C1` [Example 44, (1S,3S)-3-((6-(5-((((cyclopentyloxy)carbonyl)amino)methyl)-1-methyl-1H-1,2,3-triazol-4-yl)-2-ethylpyridin-3-yl)oxy)cyclo-hexane-1-carboxylic acid], the IC50 was 37 nM.

The assay is the same for the next values; noted with them: human LPA1 functional antagonist assay; read-out: hLPA1 IC50.
Consider `Cc1nc(-c2nnn(C)c2CNC(=O)OCCC(C)C)ccc1O[C@H]1CCC[C@H](C(=O)O)C1` [Example 197, (1S,3S)-3-((6-(5-((((isopentyloxy)carbonyl)amino)methyl)-1-methyl-1H-1,2,3-triazol-4-yl)-2-methyl-pyridin-3-yl)oxy)cyclohexane-1-carboxylic acid], for which the 50% inhibitory concentration (IC50) stood at 16 nM.

As to `CC(=O)CCCOC(=O)NCc1c(-c2ccc(O[C@H]3CCC[C@H](C(=O)O)C3)c(C)n2)nnn1C` [Example 199, (1S,3S)-3((2-methyl-6-(1-methyl-5-(((((4-oxopentyl)oxy)carbonyl)amino)methyl)-1H-1,2,3-triazol-4-yl)pyridin-3-yl)oxy)cyclohexane-1-carboxylic acid], the IC50 was found to be 312 nM.

On to `Cc1nc(-c2nnn(C)c2CNC(=O)OCCC2(C)CC2)ccc1O[C@H]1CCC[C@H](C(=O)O)C1` [Example 195, (1S,3S)-3((2-methyl-6-(1-methyl-5-((((2-(1-methylcyclopropyl)ethoxy)carbonyl)amino)methyl)-1H-1,2,3-triazol-4-yl)pyridin-3-yl)oxy)cyclohexane-1-carboxylic acid], for which the IC50 was determined as 72 nM.

Consider `Cc1nc(-c2nnn(C)c2CNC(=O)OC2CC3(CC3)C2)ccc1O[C@H]1CCC[C@H](C(=O)O)C1` [Example 201, (1S,3S)-3-((2-methyl-6-(1-methyl-5-((((spiro[2.3]hexan-5-yloxy)carbonyl)amino)methyl)-1H-1,2,3-triazol-4-yl)pyridin-3-yl)oxy)cyclohexane-1-carboxylic acid], for which the IC50 was 42 nM.

For the molecule `Cc1nc(-c2nnn(C)c2CNC(=O)OCC(F)(F)C(F)(F)F)ccc1O[C@H]1CCC[C@H](C(=O)O)C1` [Example 198], the concentration for half-maximal inhibition (IC50) was 45 nM.

The values are drawn from patent US11697646B2, “Triazole N-linked carbamoyl cyclohexyl acids as LPA antagonists” (BRISTOL-MYERS SQUIBB COMPANY, priority 2017, dated 2023).
